Results taken from PubChem BioAssay (NCI).
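Each compound was tested at five concentrations against cells in 96-well plates for 48 hours. The concentration for full growth arrest is given as TGI.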

Assays:
Assay in all cases: inhibition of tumour cell growth, NCI panel, 48 h
NCI-H23 lung = tested on: NCI-H23 lung
MALME-3M melanoma = tested on: MALME-3M melanoma
MOLT-4 leukemia = tested on: MOLT-4 leukemia
SK-MEL-28 melanoma = tested on: SK-MEL-28 melanoma
NCI-H460 lung = tested on: NCI-H460 lung
TK-10 renal = tested on: TK-10 renal
MDA-MB-435 = tested on: MDA-MB-435
HOP-92 NSCLC = tested on: HOP-92 NSCLC
UACC-62 melanoma = tested on: UACC-62 melanoma
OVCAR-8 ovarian = tested on: OVCAR-8 ovarian
SK-MEL-5 melanoma = tested on: SK-MEL-5 melanoma
CCRF-CEM leukemia = tested on: CCRF-CEM leukemia
NCI/ADR-RES ovarian = tested on: NCI/ADR-RES ovarian
LOX IMVI melanoma = tested on: LOX IMVI melanoma
RPMI-8226 leukemia = tested on: RPMI-8226 leukemia
HOP-62 NSCLC = tested on: HOP-62 NSCLC
SK-MEL-2 melanoma = tested on: SK-MEL-2 melanoma
RXF 393 renal = tested on: RXF 393 renal
SW-620 colon = tested on: SW-620 colon
CAKI-1 renal = tested on: CAKI-1 renal
COLO 205 colon = tested on: COLO 205 colon
U251 CNS = tested on: U251 CNS
A498 renal = tested on: A498 renal
SNB-75 CNS = tested on: SNB-75 CNS
IGROV1 ovarian = tested on: IGROV1 ovarian
SF-539 CNS = tested on: SF-539 CNS
KM12 colon = tested on: KM12 colon
786-0 renal = tested on: 786-0 renal
SR leukemia = tested on: SR leukemia
MDA-N = tested on: MDA-N
SF-268 CNS = tested on: SF-268 CNS
HCT-15 colon = tested on: HCT-15 colon
SNB-19 CNS = tested on: SNB-19 CNS
NCI-H522 lung = tested on: NCI-H522 lung
OVCAR-5 ovarian = tested on: OVCAR-5 ovarian
HS 578T breast = tested on: HS 578T breast
OVCAR-3 ovarian = tested on: OVCAR-3 ovarian
UO-31 renal = tested on: UO-31 renal
ACHN renal = tested on: ACHN renal
HCC-2998 colon = tested on: HCC-2998 colon
SN12C renal = tested on: SN12C renal
HT29 colon = tested on: HT29 colon
T-47D breast = tested on: T-47D breast
PC-3 prostate = tested on: PC-3 prostate
K-562 leukemia = tested on: K-562 leukemia
HL-60(TB) leukemia = tested on: HL-60(TB) leukemia
MCF7 breast = tested on: MCF7 breast
BT-549 breast = tested on: BT-549 breast
EKVX NSCLC = tested on: EKVX NSCLC
UACC-257 melanoma = tested on: UACC-257 melanoma
DU-145 prostate = tested on: DU-145 prostate
SF-295 CNS = tested on: SF-295 CNS
OVCAR-4 ovarian = tested on: OVCAR-4 ovarian
A549 NSCLC = tested on: A549 NSCLC
M14 melanoma = tested on: M14 melanoma
SK-OV-3 ovarian = tested on: SK-OV-3 ovarian
HCT-116 colon = tested on: HCT-116 colon
NCI-H226 lung = tested on: NCI-H226 lung

O=C1CC(Cl)c2c1csc2Br (centres undefined) gave a TGI (NCI-H23 lung) of 28.9 µM, a TGI (MALME-3M melanoma) of 30.1 µM and a TGI (MOLT-4 leukemia) of 22.2 µM. The TGI (SK-MEL-28 melanoma) was 32.1 µM, the TGI (NCI-H460 lung) was 42.5 µM and the TGI (TK-10 renal) was 29.5 µM. The TGI (MDA-MB-435) was 29.1 µM, the TGI (HOP-92 NSCLC) was 41.8 µM and the TGI (UACC-62 melanoma) was 29.5 µM. For the same molecule, the TGI (OVCAR-8 ovarian) was 29.8 µM, the TGI (SK-MEL-5 melanoma) was 30.6 µM and the TGI (CCRF-CEM leukemia) was 7.78 µM. It also gave a TGI (NCI/ADR-RES ovarian) of 47 µM, a TGI (LOX IMVI melanoma) of 30.5 µM and a TGI (RPMI-8226 leukemia) of 3.25 µM. It also gave a TGI (HOP-62 NSCLC) of 28.7 µM, a TGI (SK-MEL-2 melanoma) of 29.8 µM and a TGI (RXF 393 renal) of 34.7 µM. For the same molecule, the TGI (SW-620 colon) was 12.6 µM, the TGI (CAKI-1 renal) was 17.7 µM and the TGI (COLO 205 colon) was 28.5 µM. The TGI (U251 CNS) was 30.4 µM, the TGI (A498 renal) was 53.8 µM and the TGI (SNB-75 CNS) was 35.4 µM. For the same molecule, the TGI (IGROV1 ovarian) was 30.8 µM, the TGI (SF-539 CNS) was 6.46 µM and the TGI (KM12 colon) was 28.5 µM. It also gave a TGI (786-0 renal) of 25.9 µM, a TGI (SR leukemia) of 22.3 µM and a TGI (MDA-N) of 42.2 µM. It also gave a TGI (SF-268 CNS) of 31.4 µM, a TGI (HCT-15 colon) of 25.8 µM and a TGI (SNB-19 CNS) of 32.9 µM. The TGI (NCI-H522 lung) was 11.3 µM, the TGI (OVCAR-5 ovarian) was 33.5 µM and the TGI (HS 578T breast) was 47.5 µM. It also gave a TGI (OVCAR-3 ovarian) of 39.5 µM, a TGI (UO-31 renal) of 23.8 µM and a TGI (ACHN renal) of 29 µM. For the same molecule, the TGI (HCC-2998 colon) was 31.2 µM, the TGI (SN12C renal) was 35.7 µM and the TGI (HT29 colon) was 43.9 µM. For the same molecule, the TGI (T-47D breast) was 70.1 µM, the TGI (PC-3 prostate) was 25.4 µM and the TGI (K-562 leukemia) was 47 µM. For the same molecule, the TGI (HL-60(TB) leukemia) was 52.4 µM, the TGI (MCF7 breast) was 19.6 µM and the TGI (BT-549 breast) was 34 µM. It also gave a TGI (EKVX NSCLC) of 43.2 µM, a TGI (UACC-257 melanoma) of 32.1 µM and a TGI (DU-145 prostate) of over 100 µM. It also gave a TGI (SF-295 CNS) of 50.2 µM, a TGI (OVCAR-4 ovarian) of 63.6 µM and a TGI (A549 NSCLC) of 41.4 µM. The TGI (M14 melanoma) was 27.3 µM, the TGI (SK-OV-3 ovarian) was 32.6 µM and the TGI (HCT-116 colon) was 33.1 µM. It also gave a TGI (NCI-H226 lung) of 76.9 µM.
Molecule COc1cc(S(=O)(=O)Nc2ccc(-c3csc(N4C(=O)C(C)SC4c4cccc(Oc5ccccc5)c4)n3)cc2)ccc1Cl (centres undefined) has a TGI (NCI-H23 lung) of over 100 µM, a TGI (MALME-3M melanoma) of over 100 µM and a TGI (MOLT-4 leukemia) of over 100 µM. The TGI (SK-MEL-28 melanoma) was over 100 µM, the TGI (MDA-MB-435) was over 100 µM and the TGI (HOP-92 NSCLC) was over 100 µM. It also gave a TGI (UACC-62 melanoma) of over 100 µM, a TGI (OVCAR-8 ovarian) of over 100 µM and a TGI (SK-MEL-5 melanoma) of over 100 µM. It also gave a TGI (CCRF-CEM leukemia) of over 100 µM, a TGI (NCI/ADR-RES ovarian) of over 100 µM and a TGI (LOX IMVI melanoma) of over 100 µM. The TGI (RPMI-8226 leukemia) was over 100 µM, the TGI (HOP-62 NSCLC) was over 100 µM and the TGI (SK-MEL-2 melanoma) was over 100 µM. The TGI (RXF 393 renal) was 88.2 µM, the TGI (SW-620 colon) was over 100 µM and the TGI (CAKI-1 renal) was over 100 µM. The TGI (COLO 205 colon) was over 100 µM, the TGI (A498 renal) was 79.3 µM and the TGI (SNB-75 CNS) was over 100 µM. For the same molecule, the TGI (IGROV1 ovarian) was over 100 µM, the TGI (SF-539 CNS) was over 100 µM and the TGI (KM12 colon) was over 100 µM. It also gave a TGI (SR leukemia) of over 100 µM, a TGI (MDA-N) of over 100 µM and a TGI (SF-268 CNS) of over 100 µM. The TGI (HCT-15 colon) was over 100 µM, the TGI (SNB-19 CNS) was over 100 µM and the TGI (NCI-H522 lung) was over 100 µM. It also gave a TGI (OVCAR-5 ovarian) of over 100 µM, a TGI (HS 578T breast) of over 100 µM and a TGI (OVCAR-3 ovarian) of over 100 µM. For the same molecule, the TGI (UO-31 renal) was over 100 µM, the TGI (ACHN renal) was over 100 µM and the TGI (SN12C renal) was over 100 µM. For the same molecule, the TGI (HT29 colon) was over 100 µM, the TGI (T-47D breast) was over 100 µM and the TGI (PC-3 prostate) was over 100 µM. For the same molecule, the TGI (K-562 leukemia) was over 100 µM, the TGI (HL-60(TB) leukemia) was 67.2 µM and the TGI (MCF7 breast) was 72.2 µM. The TGI (BT-549 breast) was over 100 µM, the TGI (EKVX NSCLC) was over 100 µM and the TGI (DU-145 prostate) was over 100 µM. It also gave a TGI (SF-295 CNS) of over 100 µM, a TGI (A549 NSCLC) of over 100 µM and a TGI (M14 melanoma) of over 100 µM. The TGI (SK-OV-3 ovarian) was over 100 µM, the TGI (HCT-116 colon) was over 100 µM and the TGI (NCI-H226 lung) was over 100 µM.
